Several values for one entry are separate records, joined by “and”; a condition that tells them apart may be missing. Equal entries are not always repeated. Where two headings read alike, the source gives them in different places.
How the values were obtained:
[1] = system: HCT116 cells; experiment: Inhibition of proliferation of the HCT116 cell line by the cryptophycin compounds of formula (I) (14C-thymidine incorporation); type: cell-based; settings: tested as pure β epoxide or α/β epoxide mixture (structural comment)
Procedure: (§1) Evaluation of the Inhibition of Proliferation of the HCT116 and MDA-MB-231 Cell Lines by the Cryptophycin Compounds of Formula (I)
(§2) HCT116 and MDA-MB-231 cells in their exponential growth phase were trypsinized and resuspended in their respective culture medium (DMEM/F12 Gibco #21331, 10% FCS Gibco #10500-056, […] Gibco #25030 for the MDA-MB-231 cells; DMEM Gibco #11960, 10% FCS Gibco #10500-056, 2 mM glutamine Gibco #25030 for the HCT116 cells). The cell suspension was seeded in Cytostar 96-well culture plates (GE Healthcare Europe, # RPNQ0163) in the whole culture medium containing serum at a density of 5000 cells/well. After incubation for 4 h, successive dilutions of the cryptophycin compounds were added to the wells at concentrations decreasing from 10^−7 to 10^−12 M (in triplicate for each concentration). The cells were cultured at 37° C. in an atmosphere containing 5% CO2 in the presence of the cryptophycin compounds for 3 d. On the 4th day, 10 μl of a ^14C-thymidine solution (0.1 μCi/well, Perkin Elmer # NEC56825000) were added to each well. The incorporation of ^14C-thymidine was measured 96 h after the start of the experiment with a microbeta radioactivity counter (Perkin Elmer). The data were expressed in the form of a percentage of survival by determining the ratio between the reduced count obtained with the cells treated with the cryptophycin compound and the count obtained with the cells of the control wells (treated with the culture medium alone).
(§3) The inhibitory activity is given by the concentration which inhibits 50% of the activity.

[2] = system: MDA-MB-231 cells; experiment: Inhibition of proliferation of the MDA-MB-231 cell line by the cryptophycin compounds of formula (I) (14C-thymidine incorporation); type: cell-based; settings: 14C-thymidine incorporation at 96 h, tested as pure β epoxide or α/β epoxide mixture (structural comment), read-out: IC50 (pM) MDA-MD-231
Procedure: as §1, §2, §3

[3] = system: lung cancer; settings: two phase II lung cancer trials; cited from earlier work
[4] = 16-membered ring
[5] = Homo sapiens, HCT-116, 14C-thymidine incorporation at 96 h

Which IC50 ([1]; 14C-thymidine incorporation at 96 h) does the source give for COc1ccc(C[C@H]2NC(=O)/C=C/C[C@@H]([C@H](C)[C@H]3O[C@@H]3c3ccccc3)OC(=O)[C@H](CC(C)C)OC(=O)C(C)(C)CNC2=O)cc1Cl [C-52, cryptophycin C-52, reference compound] here?
Its IC50 is 76 pM.

And the IC50 [2]?
The IC50 was 90 pM.

And the stable disease [3]?
The stable disease was 30-40%.

With COc1ccc(C[C@H]2NC(=O)/C=C/C[C@@H]([C@H](C)[C@H]3O[C@@H]3c3ccc(CN)cc3)OC(=O)[C@H](CC(C)C)NC(=O)C(C)(C)CNC2=O)cc1Cl [Ex. 1, (3S,10R,16S,E)-16-((S)-1-((2R,3R)-3-(4-(aminomethyl)phenyl)oxiran-2-yl)ethyl)-10-(3-chloro-4-methoxybenzyl)-3-isobutyl-6,6-dimethyl-1-oxa-4,8,11-triazacyclohexadec-13-ene-2,5,9,12-tetraone] as the compound, how does the IC50 [1, 5] read?
The IC50 was 163 pM.

What about the IC50 ([2]; Homo sapiens, MDA-MB-231) of the same compound?
Its IC50 is 250 pM.

With COc1ccc(C[C@H]2NC(=O)/C=C/C[C@@H]([C@H](C)[C@H]3O[C@@H]3c3ccc(CO)cc3)OC(=O)[C@H](CC(C)(C)C)NC(=O)C(C)(C)CNC2=O)cc1Cl [Ex. 4, (3S,10R,16S,E)-10-(3-chloro-4-methoxybenzyl)-16-((S)-1-((2R,3R)-3-(4-(hydroxy-methyl)phenyl)oxiran-2-yl)ethyl)-6,6-dimethyl-3-neopentyl-1-oxa-4,8,11-triazacyclohexadec-13-ene-2,5,9,12-tetraone] as the compound, how does the IC50 [1, 5] read?
Its IC50 is 51 pM.

And the IC50 ([2]; Homo sapiens, MDA-MB-231)?
Its IC50 is 82 pM.

With COc1ccc(C[C@H]2NC(=O)/C=C/C[C@@H]([C@H](C)C3OC3c3ccc(CN)cc3)OC(=O)[C@H](CC(C)C)NC(=O)C(C)(C)C(C)NC2=O)cc1Cl (stereo partly drawn) [Ex. 8, (3S,10R,16S,E)-16-((S)-1-(3-(4-(aminomethyl)phenyl)oxiran-2-yl)ethyl)-10-(3-chloro-4-methoxybenzyl)-3-isobutyl-6,6,7-trimethyl-1-oxa-4,8,11-triazacyclohexadec-13-ene-2,5,9,12-tetraone] as the compound, how does the IC50 [1, 5] read?
The IC50 was 518 pM.

What about the IC50 ([2]; Homo sapiens, MDA-MB-231) of the same compound?
The IC50 was 564 pM.

Which IC50 ([2]; Homo sapiens, MDA-MB-231) does the source give for COc1ccc(C[C@H]2NC(=O)/C=C/C[C@@H]([C@H](C)[C@H]3O[C@@H]3c3ccc(CO)cc3)OC(=O)[C@H](CC(C)(C)C)NC(=O)C(C)(C)C(C)NC2=O)cc1Cl (stereo partly drawn) [Ex. 11, (3S,10R,16S,E)-10-(3-chloro-4-methoxybenzyl)-16-((S)-1-((2R,3R)-3-(4-(hydroxymethyl)phenyl)oxiran-2-yl)ethyl)-6,6,7-trimethyl-3-neopentyl-1-oxa-4,8,11-triazacyclohexadec-13-ene-2,5,9,12-tetraone] here?
Its IC50 is 102 pM.

For COc1ccc(C[C@H]2NC(=O)/C=C/C[C@@H]([C@H](C)C3OC3c3ccc(CO)cc3)OC(=O)[C@H](C)NC(=O)C(C)(C)CNC2=O)cc1Cl (stereo partly drawn) [Ex. 15, (3S,10R,16S,E)-10-(3-chloro-4-methoxybenzyl)-16-((S)-1-(3-(4-(hydroxy-methyl)phenyl)oxiran-2-yl)ethyl)-3,6,6-trimethyl-1-oxa-4,8,11-triazacyclohexadec-13-ene-2,5,9,12-tetraone], which IC50 ([2]; Homo sapiens, MDA-MB-231) is on record?
Its IC50 is 511 pM.

Which IC50 ([2]; Homo sapiens, MDA-MB-231) does the source give for COc1ccc(C[C@H]2NC(=O)/C=C/C[C@@H]([C@H](C)C3OC3c3ccc(CO)cc3)OC(=O)[C@H](C(C)C)NC(=O)C(C)(C)CNC2=O)cc1Cl (stereo partly drawn) [Ex. 16, (3S,10R,16S,E)-10-(3-chloro-4-methoxybenzyl)-16-((S)-1-(3-(4-(hydroxy-methyl)phenyl)oxiran-2-yl)ethyl)-6,6-dimethyl-3-isopropyl-1-oxa-4,8,11-triazacyclohexadec-13-ene-2,5,9,12-tetraone] here?
Its IC50 is 2820 pM.

For COc1ccc(C[C@H]2NC(=O)/C=C/C[C@@H]([C@H](C)C3OC3c3ccc(CO)cc3)OC(=O)[C@H](C(C)(C)C)NC(=O)C(C)(C)CNC2=O)cc1Cl (stereo partly drawn) [Ex. 17, (3S,10R,16S,E)-10-(3-chloro-4-methoxybenzyl)-16-((S)-1-(3-(4-(hydroxy-methyl)phenyl)oxiran-2-yl)ethyl)-3-tert-butyl-6,6-dimethyl-1-oxa-4,8,11-triazacyclohexadec-13-ene-2,5,9,12-tetraone], which IC50 ([2]; Homo sapiens, MDA-MB-231) is on record?
Its IC50 is 856 pM.

Which IC50 [1, 5] does the source give for COc1ccc(C[C@H]2NC(=O)/C=C/C[C@@H]([C@H](C)[C@H]3O[C@@H]3c3ccc(CN)cc3)OC(=O)[C@H](CC(C)C)NC(=O)C(C)(C)C(C)NC2=O)cc1Cl (stereo partly drawn) [Ex. 18, (3S,10R,16S,E)-16-((S)-1-((2R,3R)-3-(4-(aminomethyl)phenyl)oxiran-2-yl)ethyl)-10-(3-chloro-4-methoxybenzyl)-3-isobutyl-6,6,7-trimethyl-1-oxa-4,8,11-triazacyclohexadec-13-ene-2,5,9,12-tetraone] here?
Its IC50 is 179 pM.

What about the IC50 ([2]; Homo sapiens, MDA-MB-231) of the same compound?
Its IC50 is 228 pM.

For “(3S,7S,10R,16S, E)-10-(3-chloro-4-methoxybenzyl)-16-((R)-1-((4-methoxy-benzyl)oxy)propan-2-yl)-6,6,7-trimethyl-3-neopentyl-1-oxa-4,8,11-triazacyclohexadec-13-ene-2,5,9,12-tetraone”, which ring closure, isolated yield ([4]; rcm bond) is on record?
The ring closure, isolated yield was 61%.

With “(3S,10R,16S, E)-10-(3-chloro-4-methoxybenzyl)-16-((R,E)-4-(4-(hydroxymethyl)-phenyl)but-3-en-2-yl)-6,6,7-trimethyl-3-neopentyl-1-oxa-4,8,11-triazacyclohexadec-13-ene-2,5,9,12-tetraone” as the compound, how does the ring closure, isolated yield ([4]; amide bond) read?
Its ring closure, isolated yield is 54%.

For “(3S,10R,16S, E)-10-(3-chloro-4-methoxybenzyl)-16-((R,E)-4-(4-(hydroxymethyl)-phenyl)but-3-en-2-yl)-6,6-dimethyl-3-neopentyl-1-oxa-4,8,11-triazacyclohexadec-13-ene-2,5,9,12-tetraone”, which ring closure, isolated yield ([4]; amide bond) is on record?
The ring closure, isolated yield was 70%.

Which ring closure, isolated yield ([4]; amide bond) does the source give for “(3S,10R,16S, E)-16-((R,E)-4-(4-(azidomethyl)phenyl)but-3-en-2-yl)-10-(3-chloro-4-methoxybenzyl)-3-isobutyl-6,6,7-trimethyl-1-oxa-4,8,11-triazacyclohexadec-13-ene-2,5,9,12-tetraone” here?
Its ring closure, isolated yield is 53%.

With “(3S,10R,16S,E)-10-(3-chloro-4-methoxybenzyl)-6-(hydroxymethyl)-16-((R)-1-((4-methoxybenzyl)oxy)propan-2-yl)-6-methyl-3-neopentyl-1-oxa-4,8,11-triazacyclohexadec-13-ene-2,5,9,12-tetraone” as the compound, how does the ring closure, isolated yield ([4]; rcm bond) read?
Its ring closure, isolated yield is 56% and 37%.

With “(3S,10R,16S,E)-16-((R,E)-4-(4-(azidomethyl)phenyl)but-3-en-2-yl)-10-(3-chloro-4-methoxybenzyl)-3-isobutyl-6,6-dimethyl-1-oxa-4,8,11-triazacyclohexadec-13-ene-2,5,9,12-tetraone” as the compound, how does the ring closure, isolated yield ([4]; amide bond) read?
Its ring closure, isolated yield is 68%.

For “(3S,10R,16S,E)-16-((S)-1-((2R,3R)-3-(4-(aminomethyl)phenyl)oxiran-2-yl)ethyl)-10-(3-chloro-4-methoxybenzyl)-6-methyl-3-neopentyl-6-(((triethylsilyl)oxy)methyl)-1-oxa-4, 8,11-triazacyclohexadec-13-ene-2,5,9,12-tetraone [Ex. 32]”, which IC50 [2] is on record?
Its IC50 is 1780 pM.
